# Results taken from US11331364B2, “Use for JNK inhibitor molecules for treatment of various diseases” (Xigen Inflammation Ltd., priority 2014, dated 2022).
# Square brackets hold non-standard residues; d marks the D form. Peptide text beside a SMILES is read from it.
# What was measured:
# [1] = test system: primary mouse cortical neuron cultures; assay: Neuronal apoptosis after Aβ42 stress in WT primary cortical neurons (cleaved PARP, caspase 3); assay type: cell-based
# Method: To this end, primary mouse cortical neuron cultures were exposed to either 2 μM or 25 μM of β-amyloid 1-42 (Aβ42) for 5 hours to induce Aβ42 cell stress. […] Levels of phosphorylated JNK (pJNK), total JNK (JNK), cleaved PARP and Tubulin (control) were determined. The ratio of pJNK/JNK served as a measure of JNK activity. The level of cleaved protein PARP, which is known to increase during apoptosis, served as a measure of neuronal apoptosis.
# (§1) To obtain primary cortical neuronal cultures, E15.5 mice embryos were dissected in PBS (Phosphate Buffered Saline) 6% glucose, on ice. Embryos cortices were minced into small pieces and treated with PBS glucose trypsin (Sigma Aldrich, Saint-Louis, USA) for 20 min at 37° C. Dissociated cortical cells were cultured in Neurobasal media complemented with B27, Glutamax and penicillin-streptomycin (Gibco). Neurons were cultured at 37° C., 5% CO2 on pre-coated with poly-L-lysin (Sigma Aldrich) petri dishes. Neurons were cultured to maturity (7 days) before use.
# (§2) To induce […] stress 2 μM of Aβ1-42 (Thermo Fisher Scientific, Mass., USA) were used during 5 h on cortical neurons. Aβ42-1 inversed peptide (Thermo Fisher Scientific) was used as negative control. AP 1-42 and Aβ42-1 were dissolved in pure water and incubated at 37° C. for 48 h before use. […]
# (§3) For immunoblot analysis cells were lysed on ice in a lysis buffer containing […] NaPi pH 7.8, […] NaCl, 1% Triton, 0.5% DOC, 0.1% SDS, 10% glycerol, 0.1 μM calyculin A, 1 mM Na3VO4 and 1× of a protease inhibitor cocktail (Sigma Aldrich). Lysates were sonicated and centrifugated 10 min at 15000 g at 4° C. The supernatant protein concentration was determined with the Micro BCA protein assay kit (Thermo Scientific). Thirty micrograms of proteins were resolved on SDS-PAGE and transferred onto nitrocellulose membrane. After blocking with TBS 5% skim milk, the membranes were probed with primary antibodies to JNK full, c-Jun, PKR, eIF2α (Santa Cruz, Danvers, USA), pJNK (Millipore, Billerica, USA), phosphor eIF2a (Thermo Fisher Scientific), PARP and tubulin (Cell Signaling, Danvers, USA). IR Dyes 800 and 700 (Rockland Immunochemical Inc, Gilbertsville, USA) antibodies were used as secondary antibodies. Blots were reveled with Odyssey imaging system (LI-COR Biosciences, Lincoln, USA).
# For caspase 3 activity analysis culture cell supernatants containing degenerating and dead neurons, and cell medium were collected in parallel of adhesive neurons lysis. Culture cell supernatants were centrifugated 10 min at 15000 g at 4° C. Pellets were then resuspended in lysis buffer and caspase 3 activity was measured by using the Caspase 3 Assay kit reagents and protocol (Abcam, Cambridge, UK).
# hJNK3 = hJNK3 (Homo sapiens, UniProt P53779); assay: hJNK3 | IC50; conditions: read-out: hJNK3 | IC50
# hJNK3, sequence (P53779 whole entry, looked up): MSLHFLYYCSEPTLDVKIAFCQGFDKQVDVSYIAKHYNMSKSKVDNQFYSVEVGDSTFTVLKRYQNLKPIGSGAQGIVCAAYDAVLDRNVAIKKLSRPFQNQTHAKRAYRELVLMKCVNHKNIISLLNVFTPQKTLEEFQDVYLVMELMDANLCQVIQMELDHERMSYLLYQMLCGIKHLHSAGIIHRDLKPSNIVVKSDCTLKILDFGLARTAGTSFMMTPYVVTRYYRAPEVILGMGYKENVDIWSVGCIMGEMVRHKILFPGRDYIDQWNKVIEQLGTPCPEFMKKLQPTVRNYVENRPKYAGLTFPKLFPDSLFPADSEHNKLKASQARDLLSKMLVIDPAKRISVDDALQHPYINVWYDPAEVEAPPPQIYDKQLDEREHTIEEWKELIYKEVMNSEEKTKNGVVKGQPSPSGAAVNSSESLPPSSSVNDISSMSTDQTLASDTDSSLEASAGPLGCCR
# [2] = test system: acute CYP-induced cystitis in female Sprague-Dawley rats; assay: Cyclophosphamide-induced acute cystitis, intravesical treatment, visceral pain and bladder inflammation; assay type: in vivo, rat; conditions: 50 mg/mL, i.ves.; 24 h after CYP
# Method: This preclinical model is well-used to test therapeutic approaches for the treatment of interstitial cystitis/painful bladder syndrome (IC/PBS).
# Animals were acclimatized to the laboratory conditions for at least 3 days before the start of any experiments. The animals were allocated to the following four experimental groups (n=10 animals per group):
# To induce acute cystitis, a single i.p. injection of CYP at a dose of 150 mg/kg in a final volume of 5 mL/kg was performed. Control rats received physiological saline under the same experimental conditions as CYP (final volume of 5 mL/kg, i.p.).
# On the day of each experiment, weight of rats was recorded.
# Standardized conditions including fixed time-of-day (a.m. to minimize the potential circadian variations in the behaviours responses) and single-experimenter testing of all animals were applied to minimize variability behavior-based pain testing. Visceral pain including allodynia and hyperalgesia was evaluated by applying to the lower abdomen, close to the urinary bladder, a set of 8 calibrated von Frey filaments of increasing forces (1, 2, 4, 6, 8, 10, 26 and 60 g) with an interstimulus interval of 5 seconds. Prior testing, the abdominal area designed for mechanical stimulation of each animal was shaved. Animals were then placed on a raised wire mesh floor under individual transparent Plexiglas box and acclimatized for at least 30 minutes before starting the von Frey test. Filaments were then applied 1-2 seconds through the mesh floor with enough strength to cause the filament to slightly bend. Each filament was tested 3 times. Care was taken to stimulate different areas within the lower abdominal region in the vicinity of the urinary bladder to avoid desensitization.
# Nociceptive behaviors were scored for each animal and each filament as follows:
# The study design is schematically shown in FIG. 50 A. Birefly, acute cystitis was induced by CYP injection (i.p.) at Do (as described above).
# Urinary bladders were rapidly collected and cleaned from lipoid tissue. Urinary bladders were weighed, cut at the bladder neck as well as oedema and haemorrhage scoring was performed (see table below). Finally, wall thickness was measured using a digital caliper by placing the bladder wall between the two outside jaws.
# JNK = JNK and c-Jun activation after Aβ42 stress in WT primary cortical neurons (immunoblot); assay type: cell-based, mouse
# Method: To this end, primary mouse cortical neuron cultures were exposed to either 2 μM or 25 μM of β-amyloid 1-42 (Aβ42) for 5 hours to induce Aβ42 cell stress. Neurons were pre-treated with or without 10 μM of the specific inhibitor of JNK, XG-104 (SEQ ID No. 172). Levels of phosphorylated JNK (pJNK), total JNK (JNK), cleaved PARP and Tubulin (control) were determined. The ratio of pJNK/JNK served as a measure of JNK activity. The level of cleaved protein PARP, which is known to increase during apoptosis, served as a measure of neuronal apoptosis.
# as §1, §2, §3
# [3] = WT neurons, 10 μM, vs Aβ42 treated WT neurons
# [4] = WT neurons, 10 μM, 1 h before 2 μM Aβ42, vs stressed WT neurons without peptides
structure (smiles),measurement,setting,value
"CC(C)C[C@H](NC(=O)[C@H](CC(N)=O)NC(=O)[C@H](CC(C)C)NC(=O)[C@@H](NC(=O)[C@@H](C)NC(=O)[C@@H]1CCCN1C(=O)[C@H](CCCNC(=N)N)NC(=O)[C@@H](CCCCN)NC(=O)[C@@H]1CCCN1C(=O)[C@H](CCCNC(=N)N)NC(=O)[C@@H](CCCNC(=N)N)NC(=O)[C@H](CCCNC(=N)N)NC(=O)[C@H](CCCNC(=N)N)NC(=O)[C@H](CCC(N)=O)NC(=O)[C@@H](CCCNC(=N)N)NC(=O)[C@H](CCCNC(=N)N)NC(=O)[C@H](CCCCN)NC(=O)[C@H](CCCCN)NC(=O)[C@H](N)CCCNC(=N)N)[C@@H](C)O)C(=O)N[C@H](Cc1ccccc1)C(N)=O [SEQ ID NO: 172, rKKRrQRRrRPkRPaTLNLf] (H-[dR]KKR[dR]QRR[dR]RP[dK]RP[dA]TLNL[dF]-NH2; N-terminus assumed)",decrease of PARP cleavage,"[1]; 2 μM Aβ42, 5 μM pre-treatment",46.8%
same,decrease of PARP cleavage,"[1]; 2 μM Aβ42, 10 μM pre-treatment",80.2%
same,decrease of PARP cleavage,"[1]; 25 μM Aβ42, 5 μM pre-treatment",69%
same,decrease of PARP cleavage,"[1]; 25 μM Aβ42, 10 μM pre-treatment",80.6%
same,"efficiency to reduce apoptosis, 10 μM relative to 5 μM",[1]; Aβ42-induced apoptosis,1.7
same,decrease of caspase 3 activity,[1]; [3],78%
same,decrease of cleaved PARP expression level,[1]; [3],77%
same,reduction of cleaved caspase 3 expression level,[1]; [3],61%
same,IC50,hJNK3,102 nM
same,AUC 1-8 g (allodynia) vs vehicle,[2],significantly decreased
same,AUC 8-60 g (hyperalgesia) vs vehicle,[2],reduced
same,haemorrhage scores vs vehicle,[2],no significant change
same,nociceptive scores vs vehicle,[2],significantly decreased
same,nociceptive threshold vs vehicle,[2],significantly increased
same,oedema scores vs vehicle,[2],significant decrease
same,urinary bladder wall thickness vs vehicle,[2],significantly decreased
same,decrease of JNK activity (pJNK/JNK),"JNK; 2 μM Aβ42 5 hours, 5 μM pre-treatment",29.2%
same,decrease of JNK activity (pJNK/JNK),"JNK; 2 μM Aβ42 5 hours, 10 μM pre-treatment",60%
same,decrease of JNK activity (pJNK/JNK),"JNK; 25 μM Aβ42 5 hours, 5 μM pre-treatment",17.5%
same,decrease of JNK activity (pJNK/JNK),"JNK; 25 μM Aβ42 5 hours, 10 μM pre-treatment",59.6%
same,JNK activation,"JNK; WT neurons, 10 μM, 1 h before 2 μM Aβ42",−60%
same,c-Jun expression,JNK; [4],−62%
same,c-Jun phosphorylation,JNK; [4],−29%
